Read-outs that look alike come from different tables or passages of the source.
How the values were obtained:
[1] = cited from earlier work; for time to reach maximum plasma concentration: healthy volunteers
[2] = Pharmacokinetics of oxycodone in rabbits after intravenous and sublingual spray administration
[3] = male, New Zealand albino, rabbit, plasma, iv, 100 ug

SMILES | bioavailability ([1]; buccal and intranasal administration) | Tmax ([2]; male, New Zealand albino, rabbit, plasma, 100 μg) | bioavailability ([2]; male, New Zealand albino, rabbit, plasma, 100 μg, pH 4) | bioavailability ([2]; male, New Zealand albino, rabbit, plasma, 100 μg, pH 9) | AUC(0-inf) [2, 3] | Cmax [2, 3] | Tmax [2, 3] | half-life [2, 3] | terminal half-life after intravenous administration compared with sublingual administration ([2]; rabbits) | time to reach maximum plasma concentration ([1]; immediate release oral tablets) | time to reach maximum plasma concentration ([1]; intramuscular) | time to reach maximum plasma concentration ([1]; intranasal) | bioavailability ([1]; oral, nasal and rectal, adults, compared with parenteral administration)
COc1ccc2c3c1O[C@H]1C(=O)CC[C@@]4(O)[C@@H](C2)N(C)CC[C@]314.Cl [oxycodone hydrochloride] | around 55% | – | – | – | – | – | – | – | – | – | – | – | –
COc1ccc2c3c1O[C@H]1C(=O)CC[C@@]4(O)[C@@H](C2)N(C)CC[C@]314 [oxycodone, 4,5-epoxy-14-hydroxy-3-methoxy-1 7-methyl-5a-morphinan-6-one] | – | 20 min | 45.4 ± 20.1% | 70.1 ± 17.9% | 213 ng·h/mL | 185 ng/mL | 0 min | 67.8 min | close to the terminal half-life after sublingual administration | 1.3 h | 1.0 h | 0.42 h | 40-60%

From patent US20090117054A1, “[…] FOR THE TREATMENT OF PAIN” (University of Kentucky Research Foundation, priority 2005, published 2009)
